Assay results as given in publication PMC10570460 (Frontiers in Cell and Developmental Biology, 2023).

Target: T1, PKA regulatory subunit R1Alpha (R1A) (Rattus norvegicus, UniProt P09456)
T1 construct: gene Prkar1a; endogenous detergent-insoluble R1A clusters in P30 rat CA1 brain sections
Assay: saturation equilibrium binding in fixed brain sections, confocal fluorescence microscopy

T1 sequence (P09456 2-381): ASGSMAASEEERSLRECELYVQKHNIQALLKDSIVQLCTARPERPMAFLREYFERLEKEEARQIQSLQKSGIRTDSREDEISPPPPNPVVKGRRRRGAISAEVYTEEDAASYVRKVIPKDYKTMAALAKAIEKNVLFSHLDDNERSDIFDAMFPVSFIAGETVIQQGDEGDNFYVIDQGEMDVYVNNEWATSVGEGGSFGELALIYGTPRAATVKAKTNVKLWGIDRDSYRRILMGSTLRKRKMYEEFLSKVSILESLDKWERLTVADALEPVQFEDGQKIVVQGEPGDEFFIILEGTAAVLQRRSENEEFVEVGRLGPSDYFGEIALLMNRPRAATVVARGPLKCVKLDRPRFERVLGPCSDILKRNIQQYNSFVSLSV

Kd: 0.0235 µM
SMILES: Nc1ncnc2c1nc(SCC(=O)Nc1ccc3c(c1)C(=O)OC31c3ccc(O)cc3Oc3cc(O)ccc31)n2[C@@H]1O[C@@H]2COP(=O)(O)O[C@H]2[C@H]1O [SAF-cAMP, 8-(5-thioacetamidofluorescein)-adenosine 3′,5′-cyclic monophosphate]
